Source: patent US11137400B2, “Methods for predicting and determining responsiveness to activators of JNK kinase” (UNIVERSITY OF PITTSBURGH-OF THE COMMONWEALTH SYSTEM OF …, priority 2017, dated 2021)
“Also recorded” adds a separate entry of the source. Where a SMILES comes first, the peptide text is derived from it. The star is where a group is joined. Cbz = O=C(OCc1ccccc1)*

What was measured:
[1] = tested on: FLAG-hXBP1s; assay: Western blot of FLAG-hXBP1s (WT or S288A) in stably overexpressing KM101 cells; format: cell-based, human; settings: for effect of pretreatment on anisomycin-induced repression of FLAG-hXBP1s protein level: then stimulated with anisomycin; for effect on steady-state protein level of hXBP1s S288A mutant: S288A mutant expressing KM101 cells
Experimental: (§1) Total cell lysates were prepared with RIPA buffer containing protease inhibitor cocktail and phosphatase inhibitor cocktails I/II (Sigma-Aldrich). After centrifugation, total cell lysates then were separated by 10% sodium dodecyl sulfate polyacrylamide gel electrophoresis and analyzed by immunoblot analysis as described previously. Signals were detected with ECL reagents (GE Healthcare Life Sciences). Semi-quantification of data was performed using Image J. For immunoprecipitation assay, Cells were washed with ice-cold PBS and lysed with lysis buffer (50 mM Tris-HCl, pH 7.5; 150 mM NaCl, 0.1% (wt/vol) Nondiet P40, 1 mM Ethylenediaminetetraacetic acid (EDTA); […]; protease inhibitor cocktail and phosphatase inhibitor cocktails I/II (Sigma-Aldrich). After overnight incubation with Anti-HA-agarose beads (Roche) or anti-hXBP1s antibody at 4° C. on a rotator, following by addition of Protein G Agarose to the reaction containing anti-hXBP1s antibody for 2 h at 4° C. Immunoprecipitates were washed three times with cold lysis buffer and boiled for 5 min in 2× Laemmli buffer for elution of immunoprecipitated HA-hXBP1s or Flag-hXBP1s complex. Samples were resolved in SDS-PAGE (Bio-Rad) and immunoblotted with corresponding antibody.

[2] = tested on: hXbp1s mRNA; assay: Real-time PCR of hXbp1s mRNA in FLAG-hXBP1s-overexpressing KM101 cells; format: cell-based, human
Experimental: Real-time PCR was performed as described previously. B-Actin was used as an internal control.

[3] = tested on: HA-hXBP1s / MYC-β-TrCP binding; assay: Co-immunoprecipitation of HA-hXBP1s with MYC-β-TrCP in HEK293T cells; format: cell-based, human; settings: 10 nM JNKi for 4 hrs (FIG. 2F)
Experimental: as §1

[4] = tested on: VCAM-1; assay: TNFα-induced VCAM-1 protein expression in KM101 cells, Western blot; format: cell-based, human; settings: for TNFα-induced VCAM-1 protein expression: KM101 cells expressing (WT) hXBP1s
Experimental: as §1

[5] = tested on: 5-TGM cells; assay: Adhesion of 5-TGM cells to TNFα-treated KM101 cells; format: cell-based, mouse
Experimental: Human kidney […], human BM stromal cell lines KM101 cells, mouse MM cell line 5-TGM1, human MM cell lines ANBL-6 and MM1.S were cultured as described. Mouse macrophage cell line RAW264.7 were cultured in DMEM supplemented with 10% FBS. Isolation of primary hBMSCs was performed as described. These studies were approved by the University of Pittsburgh institutional review board and by the VA Pittsburgh Healthcare System institutional animal care and use committee. MM cell growth assay, cell adhesion assays, OCL formation assay were performed as described (Xu et al., Blood, 119:4205-4214 (2012)).

[6] = tested on: IL-6; assay: TNFα-induced IL-6 production in KM101 cells, ELISA; format: cell-based, human
Experimental: To determine hIL-6 secretion by BMSCs, supernatants from cell cultures were collected and analyzed with hIL-6 ELISA read-set go kits (eBioscience) according to the manufacturer's instructions, the mice's serum concentration of IgG2b, RANKL, IL-6 and CTX-I were measured with their respectively ELISA kit (Quidel, Roche, Roche and MyBioSource).

[7] = tested on: hXBP1s; assay: ER stress time course in HEK293T cells, Western blot of hXBP1s; format: cell-based, human
Experimental: (§2) hXBP1s plays an essential role in regulating BMSC support of MM cell growth. […] To test this hypothesis, the time-dependent protein expression patterns of hXBP1s and phosphorylated JNKs (p-JNKs) was determined in cells that were challenged with either a persistent or transient ER stress, induced by either thapsigargin (Thg) or dithiothrietol (DTT), respectively. […] The protein level of hXBP1s started to decline at 6-hrs, and the reduction continued till 12-hr, the end of Thg treatment. In contrast, Thg induced the phosphorylation of JNKs from 6 to 12-hrs of Thg treatment. This activation of JNKs coincided with the decrease in hXBP1s protein levels within the same time frame of Thg treatment (FIG. 1A).
DTT is a reducing agent that disrupts oxidative protein folding in the ER. Since the effects of DTT are rapidly reversible, and DTT can be readily removed by washing, it was used to mimic intermittent ER stress on cells. HEK293T cells were treated with DTT for 30 minutes, then DTT was washed away, and the cells were harvested at various time points after DTT removal. […] In addition, the cells recovered and further increased hXBP is protein expression at 2- and 5-hr post DTT removal. This process coincided with a drastic reduction in JNKs' phosphorylation (FIG. 1B).
as §1

[8] = tested on: p-JNKs; assay: ER stress time course in HEK293T cells, Western blot of phosphorylated JNKs; format: cell-based, human; settings: 30-minute treatment
Experimental: as §2
DTT is a reducing agent that disrupts oxidative protein folding in the ER. Since the effects of DTT are rapidly reversible, and DTT can be readily removed by washing, it was used to mimic intermittent ER stress on cells. […]
(§3) Total cell lysates were prepared with RIPA buffer containing protease inhibitor cocktail and phosphatase inhibitor cocktails I/II (Sigma-Aldrich). After centrifugation, total cell lysates then were separated by 10% sodium dodecyl sulfate polyacrylamide gel electrophoresis and analyzed by immunoblot analysis as described previously. Signals were detected with ECL reagents (GE Healthcare Life Sciences). […]

[9] = tested on: hXBP1s; assay: Western blot of steady-state hXBP1s protein (endogenous and overexpressed) in HEK293T and KM101 cells; format: cell-based, human
Experimental: as §1

[10] = tested on: FLAG-hXBP1s; assay: Western blot of FLAG-hXBP1s in HEK293T cells co-transfected with MYC-β-TrCP and MKK7-JNKs; format: cell-based, human; settings: pretreatment of HEK293T cells
From the text: Since JNKs repress hXBP1s protein expression, it was hypothesized that JNKs promote its β-TrCP binding and consequent degradation via the UPS-26S proteasome machinery. […] To determine the functional consequence of JNKs' potentiation of the physical interactions between MYC-β-TrCP and HA-hXBP1s. FLAG-XBP1s was overexpressed with a small/moderate amount of MYC-β-TrCP either in the presence or absence of MKK7-JNKs. […] Further, JNKs and MYC-β-TrCP's inhibition of FLAG-hXBP1s was abolished by pretreatment of cells with MG 132 (FIG. 2G). Consistent with the latter observation. […] Taking these observations together, it was concluded that JNKs promote the physical interactions between hXBP1s and D-TrCP, leading to the ubiquitination and consequent protein degradation of hXBP1s that results in a decrease in the steady-state levels of hXBP1s.
as §3

CCOc1nc(NC(=O)Cc2cc(OC)ccc2OC)cc(N)c1C#N [JNKi VIII]
steady-state protein level of overexpressed (WT) FLAG-hXBP1s ([1]; KM101 cells): dose-dependent up-regulation | effect of pretreatment on anisomycin-induced repression of FLAG-hXBP1s protein level ([1]; KM101 cells): largely prevented | steady-state protein level of overexpressed (WT) FLAG-hXBP1s ([1]; KM101 cells, listed as JNKi): dose-dependently increased | effect on steady-state protein level of hXBP1s S288A mutant [1]: completely abolished | mRNA expression of hXbp1s [2]: no effect | basal level binding of HA-hXBP1s with MYC-β-TrCP [3]: abolished | TNFα-induced VCAM-1 protein expression [4]: potentiated | ANS inhibition of TNFα-induced VCAM-1 expression in presence of the substance ([4]; KM101 cells, with ANS): compromised | TNFα-induced stromal support of adhesion of 5-TGM cells [5]: potentiated | TNFα-induced stromal production of IL-6 [6]: potentiated

O[C@H](CS)[C@H](O)CS (racemic) [DTT, dithiothreitol]
basal hXBP1s protein expression ([7]; 30-minute treatment): quickly diminished | phosphorylation of JNKs [8]: strongly induced

C/C=C(/C)C(=O)O[C@H]1C(C)=C2[C@H]([C@@H]1OC(=O)CCCCCCC)[C@@](C)(OC(C)=O)C[C@H](OC(=O)CCC)[C@@]1(O)[C@H]2OC(=O)[C@@]1(C)O [Thg, thapsigargin]
time at which endogenous hXBP1s peaked [7]: 4 h | time at which up-regulation of endogenous hXBP1s was first detected [7]: 2 h | time at which hXBP1s protein level started to decline ([7]; reduction continued till 12-hr): 6 h | protein expression of endogenous hXBP1s during persistent ER stress ([7]; treatment up to 12-hr): time-dependent up-regulation

COc1ccc(C[C@H]2NC[C@H](O)[C@H]2OC(C)=O)cc1 [anisomycin]
steady-state protein level of overexpressed (WT) FLAG-hXBP1s ([1]; KM101 cells): drastically decreased; also recorded: greatly reduced | effect on steady-state protein level of hXBP1s S288A mutant [1]: completely lost its inhibitory effect | mRNA expression of hXbp1s [2]: no effect | TNFα-induced VCAM-1 protein expression ([4]; listed as ANS): dose-dependently repressed; also recorded: dose-dependently blocked | inhibitory effect on TNFα-induced VCAM-1 protein expression in S288A mutant cells ([4]; S288A mutant-overexpressing KM101 cells): largely abolished

O=S(=O)(N=Cc1c(O)ccc2ccccc12)c1cccs1 [STF-083010]
TNFα-induced VCAM-1 protein expression [4]: repressed | JNKi's promotion of TNFα-induced stromal induction of VCAM-1 ([4]; KM101 cells, with JNKi): compromised | TNFα-induced stromal support of adhesion of 5-TGM cells [5]: repressed | JNKi's promotion of stromal support to 5-TGM cells' adhesion ([5]; with JNKi): compromised | TNFα-induced stromal production of IL-6 [6]: repressed | JNKi's promotion of stromal production of IL-6 ([6]; with JNKi): compromised

CC(C)C[C@@H](C=O)NC(=O)[C@H](CC(C)C)NC(=O)[C@H](CC(C)C)NC(=O)OCc1ccccc1 [MG132] (Cbz-Leu-Leu-Leu-aldehyde)
steady-state level of both endogenous and overexpressed hXBP1s [9]: promptly and greatly elevated | discrepancy in protein expression of S288A mutant and WT hXBP1s ([1]; KM101 cells): abolished | effect of pretreatment on anisomycin-induced repression of FLAG-hXBP1s protein level ([1]; KM101 cells): completely blocked | JNKs and MYC-β-TrCP's inhibition of FLAG-hXBP1s [10]: abolished
